From article PMC6711467 (Drug delivery and translational research, 2018)
Values joined by “and” are separate entries in the source; they are usually repeats but may differ in a detail not shown here. Identical values can stand only once. Like-named read-outs stand apart in the source and are kept apart here. Marks after values point to notes of the source that are not given here.

Columns and labels:
[1] = Rectal PK study: IQB4012 gel; assay type: in vivo, pigtailed macaques; details: for median drug concentration (min-max), Rectal fluids / median drug concentration (min-max), Rectal tissues: N = 6; for levels in blood plasma: below the LLOQ, data not shown; for concentration at 2 h / concentration at 4 h / concentration at 24 h: female, pigtailed macaque, other: rectal
[2] = Release of drug from the gel into a liquid sink; assay type: in vitro ADME; details: IQB4012 gel, 1% (w/w) of each drug
[3] = in vivo
[4] = Vaginal PK study: IQB4012 gel; details: for concentration at 2 h / concentration at 4 h / concentration at 24 h: female, pigtailed macaque, other: vaginal
[5] = rectal gel application, 1 or 4 ml
[6] = vaginal fluid, distal, 1.5 ml gel
[7] = vaginal fluid, proximal, 0.5 ml
[8] = vaginal fluid, proximal, 1.5 ml gel
[9] = vaginal tissue, distal, 1.5 ml gel
[10] = vaginal tissue, medial, 1.5 ml gel
[11] = vaginal tissue, proximal, 0.5 ml
[12] = vaginal application, below the LLOQ, data not shown

Cc1cc(C)cc(C(=O)c2c(C(C)C)c(=O)[nH]c(=O)n2CC2CC2)c1 [IQP-0528]
median concentrations in rectal fluids ([1]; 1 ml gel rectally, 2 to 24 h): 10^3–10^5 ng/ml
median drug concentration (min-max), Rectal fluids ([1]; 1 ml gel rectally, 2 h): 93,375 (2480–420,500) ng/ml
median drug concentration (min-max), Rectal fluids ([1]; 1 ml gel rectally, 4 h): 31,000 (545–873,500) ng/ml
median drug concentration (min-max), Rectal tissues ([1]; 1 ml gel rectally, 4 h): 9087 (BLLOQ^2-15,150) ng/g
median drug concentration (min-max), Rectal fluids ([1]; 1 ml gel rectally, 24 h): 2975 (815–22,900) ng/ml
median drug concentration (min-max), Rectal tissues ([1]; 1 ml gel rectally, 24 h): 127 ^* ng/g
median drug concentration (min-max), Rectal fluids ([1]; 4 ml gel rectally, 2 h): 106,500 (54,600–769,000) ng/ml
median drug concentration (min-max), Rectal fluids ([1]; 4 ml gel rectally, 4 h): 53,775 (9570–930,500) ng/ml
median drug concentration (min-max), Rectal tissues ([1]; 4 ml gel rectally, 4 h): 1277 (BLLOQ-51,304) ng/g
median drug concentration (min-max), Rectal fluids ([1]; 4 ml gel rectally, 24 h): 7065 (608–43,750) ng/ml
median drug concentration (min-max), Rectal tissues ([1]; 4 ml gel rectally, 24 h): 566 (BLLOQ-2228) ng/g
levels in blood plasma ([1]; rectal application): < 10 ng/mL
rectal tissue samples with detectable concentrations ([1]; rectal application, both gel volumes (1 and 4 ml)): 10^2–10^3 ng/g
concentrations sampled in rectal tissues [1, 5]: 10^1–10^3 ng/g
release from the gel into a liquid sink (Franz Cell) [2]: 53.93 μg/cm ^3h
levels in rectal tissue biopsies [3]: below LLOQ
plasma concentrations [3]: < 10 ng/mL

C[C@H](Cn1cnc2c(N)ncnc21)OCP(=O)(O)O [TFV, tenofovir]
median drug concentration (min-max), Rectal tissues ([1]; 1 ml gel rectally, 24 h): 659 (BLLOQ-3586) ng/g
median drug concentration (min-max), Rectal tissues ([1]; 4 ml gel rectally, 4 h): 393 (BLLOQ-11,464) ng/g
concentration at 2 h ([1]; rectal fluid, 1 ml): 3230 ng/mL
concentration at 4 h ([1]; rectal fluid, 1 ml): 705 ng/mL
concentration at 24 h ([1]; rectal fluid, 1 ml): 132 ng/mL
concentration at 2 h ([1]; rectal fluid, 4 ml): 5060 ng/mL
concentration at 4 h ([1]; rectal fluid, 4 ml): 864 ng/mL
concentration at 24 h ([1]; rectal fluid, 4 ml): 277 ng/mL
concentration at 4 h ([1]; rectal tissue, 1 ml): 811 ng/g
concentration at 24 h ([1]; rectal tissue, 1 ml): 659 ng/g
concentration at 4 h ([1]; rectal tissue, 4 ml): 393 ng/g
concentration at 24 h ([1]; rectal tissue, 4 ml): 1410 ng/g
concentration at 2 h ([1]; pigtailed, rectal fluid, 1 ml): 3230 ng/mL
concentration at 4 h ([1]; pigtailed, rectal fluid, 1 ml): 705 ng/mL
concentration at 24 h ([1]; pigtailed, rectal fluid, 1 ml): 132 ng/mL
concentration at 2 h ([1]; pigtailed, rectal fluid, 4 ml): 5060 ng/mL
concentration at 4 h ([1]; pigtailed, rectal fluid, 4 ml): 864 ng/mL
concentration at 24 h ([1]; pigtailed, rectal fluid, 4 ml): 277 ng/mL
concentration at 4 h ([1]; pigtailed, rectal tissue, 1 ml): 811 ng/g
concentration at 24 h ([1]; pigtailed, rectal tissue, 4 ml): 1410 ng/g
levels in blood plasma ([1]; rectal application): < 10 ng/mL
concentrations sampled in rectal tissues [1, 5]: 10^1–10^3 ng/g
median concentrations in rectal fluids [1, 5]: 10^2–10^3 ng/ml
release from the gel into a liquid sink (Franz Cell) [2]: 82.51 μg/cm ^3h
median drug concentration (min—max), Vaginal fluids, Proximal ([4]; 0.5 ml gel vaginally, 2 h, N = 6): 158,146 (BLLOQ^2-3,025,157) ng/ml
concentration at 2 h ([4]; rectal fluid, 0.5 ml): 80 ng/mL
concentration at 4 h ([4]; rectal fluid, 0.5 ml): 69 ng/mL
concentration at 24 h ([4]; rectal fluid, 0.5 ml): 53 ng/mL
concentration at 2 h ([4]; rectal fluids, 1.5 ml gel): 138 ng/mL
concentration at 4 h ([4]; rectal fluids, 1.5 ml gel): 156 ng/mL
concentration at 24 h ([4]; rectal fluids, 1.5 ml gel): 127 ng/mL
concentration at 2 h ([4]; vaginal fluid, distal, 0.5 ml): 232000 ng/mL
concentration at 4 h ([4]; vaginal fluid, distal, 0.5 ml): 132000 ng/mL
concentration at 24 h ([4]; vaginal fluid, distal, 0.5 ml): 18700 ng/mL
concentration at 2 h ([4]; vaginal fluid, distal, 1.5 ml): 37200 ng/mL
concentration at 4 h [4, 6]: 153000 ng/mL
concentration at 24 h [4, 6]: 57000 ng/mL
concentration at 4 h [4, 7]: 124000 ng/mL
concentration at 24 h [4, 7]: 48900 ng/mL
concentration at 2 h ([4]; vaginal fluid, proximal, 1.5 ml): 30400 ng/mL
concentration at 4 h [4, 8]: 54300 ng/mL
concentration at 24 h [4, 8]: 18000 ng/mL
concentration at 4 h ([4]; vaginal tissue, distal, 0.5 ml): 13400 ng/g
concentration at 24 h ([4]; vaginal tissue, distal, 0.5 ml): 5910 ng/g
concentration at 4 h [4, 9]: 19200 ng/g
concentration at 24 h [4, 9]: 5380 ng/g
concentration at 4 h ([4]; vaginal tissue, medial, 0.5 ml): 8860 ng/g
concentration at 24 h ([4]; vaginal tissue, medial, 0.5 ml): 3550 ng/g
concentration at 4 h [4, 10]: 10200 ng/g
concentration at 24 h [4, 10]: 12200 ng/g
concentration at 4 h [4, 11]: 4490 ng/g
concentration at 24 h [4, 11]: 16900 ng/g
concentration at 4 h ([4]; vaginal tissue, proximal, 1.5 ml gel): 35100 ng/g
median concentrations in rectal fluids ([4]; vaginal application of either volume (0.5 or 1.5 ml), over 24 h): ≤ 200 ng/mL
concentrations in rectal biopsy tissues [4, 12]: < 1 ng/sample
plasma concentrations [4, 12]: < 10 ng/mL

C[C@@H](Cn1cnc2c(N)ncnc21)OCP(=O)(O)OP(=O)(O)OP(=O)(O)O [TFV-DP, TFV-diphosphate]
median drug concentration (min-max), Rectal tissues ([1]; 1 ml gel rectally, 4 h): 176 ng/g and 176 (BLLOQ-207) ng/g
median drug concentration (min-max), Rectal tissues ([1]; 1 ml gel rectally, 24 h): 70 ng/g and 70 (BLLOQ-128) ng/g
median drug concentration (min-max), Rectal tissues ([1]; 4 ml gel rectally, 4 h): 47 ng/g and 47 (BLLOQ-480) ng/g
median drug concentration (min-max), Rectal tissues ([1]; 4 ml gel rectally, 24 h): 81 ng/g and 81 (BLLOQ-131) ng/g
